Measurements from US9005903B2, “Immunomodulating compositions and methods of use thereof” (ImmuneXcite, Inc., priority 2008, dated 2015).

System: IgG antibodies
Experiment: Serum IgG antibodies binding glucan
Conditions: pooled serum from 10 human donors
Method: Serum from 10 unimmunized normal healthy donors was pooled
Pooled serum from 10 human donors, had high levels of IgG antibodies binding β-1,6-glucan, in contrast to low levels of IgG binding β-1,3-glucan. To test how prevalent is the anti-β-b 1,6-glucan antibodies in different donors, we collected sera from 12 individuals. The sera were used to opsonize β-1,6-glucan- or β-1,3-glucan-coated beads, and the beads were incubated with human neutrophils. Eleven of the twelve sera had the high response that the pool did, mediating efficient engulfment and ROS production (FIG. 2A, a representative serum of the high responders). One serum mediated a less efficient engulfment and ROS production (FIG. 2B, low responder).

| Substance | levels of IgG antibodies binding the glucan |
| --- | --- |
| β-1,3-glucan | low levels |
| β-1,6-glucan | high levels |
